Assay results: patent publication US7517998B2, “Non nucleoside reverse transcriptase inhibitors” (priority 2004, dated 2009)

What follows are compounds tested against T1, K103NNY181C mutant reverse transcriptase (Human immunodeficiency virus type 1 group M subtype B, UniProt P04585, K690N/Y768C) (assay: Reverse transcriptase enzymatic assay (PicoGreen), K103N/Y181C mutant RT). Settings: IC50 mut (nM), mutant (K103N/Y181C) reverse transcriptase, enzymatic assay of Example 24.
T1 construct: mutations that occur in the reverse transcriptase segment of the pol gene
Format: biochemical, HIV-1
How it was run: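 HIV-1 RT (2.5 nM final) pre-incubated 15 min at room temperature with inhibitor, then reacted 50 min at 37 °C with poly rC 45 nM, dG15 4.5 nM, dGTP 3.6 μM in Tris/HCl pH 7.8, 1% DMSO. Final inhibitor 10 μM to 0.508 nM; EDTA-quenched, PicoGreen fluorescence read at 485/520 nm.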

First: CC(C)(C)c1ccc(-n2nnnc2SCC(=O)Nc2ccc(NC(=O)Cc3cccnc3)cc2Cl)c(Cl)c1 [Compound 7031]
Second: COc1ccc(CC(=O)Nc2ccc(NC(=O)CSc3nnnn3-c3ccc(C(C)(C)C)cc3Cl)c(Cl)c2)cc1 [Compound 7015]
The IC50 of the first is 4.4-fold lower: 43 nM for the first, 189 nM for the second.

Compared with `CC(C)(C)c1ccc(-n2nnnc2SCC(=O)Nc2ccc(NC(=O)c3ccccc3Cl)cc2Cl)c(Cl)c1` [Compound 7013], `CC(C)(C)c1ccc(-n2nnnc2SCC(=O)Nc2ccc(NC(=O)Cc3ccccc3C(F)(F)F)cc2Cl)c(Cl)c1` [Compound 7045] is 3.6-fold higher in IC50: 121 nM for the first, 432 nM for the second.

Work on `C#CCCC(=O)Nc1ccc(NC(=O)CSc2nnnn2-c2ccc(C(C)(C)C)cc2Cl)c(Cl)c1` [Compound 7020] yielded an IC50 of 69 nM.

Same assay, conditions: IC50 mut, K103N/Y181C mutant reverse transcriptase, enzymatic assay of Example 24

`CC(C)(C#Cc1ccc(NC(=O)CSc2nnnn2-c2ccc(C(C)(C)C)cc2Cl)c(Cl)c1)OCC(=O)Nc1cccc(C(=O)O)c1` [Compound 4025] and `CC(C)(C#Cc1ccc(NC(=O)CSc2nnnn2-c2ccc(C(C)(C)C)cc2Cl)c(Cl)c1)OCC(=O)O` [Compound 4020] are within 1.5-fold of each other in IC50: 44 nM for the first, 33 nM for the second.

Compared with `CC(C)(N)C#Cc1ccc(NC(=O)CSc2nnnn2-c2cc(Br)ccc2Cl)c(Cl)c1` [Compound 4220], `CC(C)(O)C#Cc1ccc(NC(=O)CSc2nnnn2-c2cc(C#N)ccc2Cl)c(Cl)c1` [Compound 4021] is 3.7-fold higher in IC50: 97.5 nM for the first, 361 nM for the second. The first is the more potent here.

First: CC(C)(C#Cc1ccc(NC(=O)CSc2nnnn2-c2ccc(C3CC3)cc2Cl)c(Cl)c1)NC(=O)c1ccncc1 [Compound 4085]
Second: CCOC(=O)NC(C)(C)C#Cc1ccc(NC(=O)CSc2nnnn2-c2ccc(C3CC3)cc2Cl)c(Cl)c1 [Compound 4081]
The IC50 of the first is 1.6-fold lower: 12 nM for the first, 19.5 nM for the second. The first is the more potent here.

Compared with `CC(C)(C#Cc1ccc(NC(=O)CSc2nnnn2-c2cccc(Cl)c2Cl)c(Cl)c1)C(=O)O` [Compound 4161], `CC(C)(C#Cc1ccc(NC(=O)CSc2nnnn2-c2cc(F)ccc2Cl)c(Cl)c1)C(=O)O` [Compound 4212] is 1.6-fold higher in IC50: 224 nM for the first, 362 nM for the second.

First: CC(C)(C#Cc1ccc(NC(=O)CSc2nnnn2-c2ccc(C3CC3)cc2Cl)c(Cl)c1)C(=O)NS(=O)(=O)C1CC1 [Compound 4184]
Second: CC(C)(C#Cc1ccc(NC(=O)CSc2nnnn2-c2ccc(C3CC3)cc2Cl)c(Cl)c1)NC(=O)CCC(=O)O [Compound 4238]
The IC50 of the first is 3.9-fold higher: 30.5 nM for the first, 7.8 nM for the second.

`CC(C)(C#Cc1ccc(NC(=O)CSc2nnnn2-c2ccc(C(C)(C)C)cc2Cl)c(Cl)c1)OCC(=O)N1CCCC1` [Compound 4038] and `CN1CCN(C(=O)COC(C)(C)C#Cc2ccc(NC(=O)CSc3nnnn3-c3ccc(C(C)(C)C)cc3Cl)c(Cl)c2)CC1` [Compound 4023] are within 1.5-fold of each other in IC50: 75 nM for the first, 64 nM for the second.

`CNCCOC(=O)COC(C)(C)C#Cc1ccc(NC(=O)CSc2nnnn2-c2ccc(C(C)(C)C)cc2Cl)c(Cl)c1` [Compound 4035] and `COC(=O)C(C)(C)C#Cc1ccc(NC(=O)CSc2nnnn2-c2cc(C(F)(F)F)ccc2Cl)c(Cl)c1` [Compound 4077] are within 1.5-fold of each other in IC50: 56 nM for the first, 44.5 nM for the second.

Going from `CC(C)(C#Cc1ccc(NC(=O)CSc2nnnn2-c2cc(C(F)(F)F)ccc2Cl)c(Cl)c1F)C(=O)O` [Compound 4101] to `CN(C)CC(=O)NC(C)(C)C#Cc1ccc(NC(=O)CSc2nnnn2-c2cc(C(F)(F)F)ccc2Cl)c(Cl)c1F` [Compound 4171], the IC50 falls from 57 nM to 31.5 nM (1.8-fold).

Compared with `CC(C)(C#Cc1ccc(NC(=O)CSc2nnnn2-c2ccc(C3CC3)cc2Cl)c(Cl)c1)NC(=O)CNCCCn1ccnc1` [Compound 4127], `C[C@H](CC(=O)O)C(=O)NC(C)(C)C#Cc1ccc(NC(=O)CSc2nnnn2-c2ccc(C3CC3)cc2Cl)c(Cl)c1` [Compound 4239] is 2.5-fold lower in IC50: 20.5 nM for the first, 8.2 nM for the second. The second is the more potent here.

`CC(C)(C#Cc1ccc(NC(=O)CSc2nnnn2-c2cc(C(F)(F)F)ccc2Cl)c(Cl)c1F)NC(=O)c1cc[n+]([O-])cc1` [Compound 4164] and `CC(C)(C#Cc1ccc(NC(=O)CSc2nnnn2-c2ccc(C3CC3)cc2Cl)c(Cl)c1F)C(=O)O` [Compound 4100] are within 1.5-fold of each other in IC50: 18.5 nM for the first, 18 nM for the second.

`CC(C)(C#Cc1ccc(NC(=O)CSc2nnnn2-c2ccc(C3CC3)cc2Cl)c(Cl)c1F)OCCOc1ccncc1` [Compound 4165] and `CC(C)(C#Cc1ccc(NC(=O)CSc2nnnn2-c2ccc(C3CC3)cc2Cl)c(Cl)c1F)OCCOc1ccc[n+]([O-])c1` [Compound 4215] are within 1.5-fold of each other in IC50: 67.5 nM for the first, 56.5 nM for the second.

First: CC(C)(C#Cc1ccc(NC(=O)CSc2nnnn2-c2cc(C3CC3)cc(C(F)(F)F)c2Cl)c(Cl)c1)C(=O)O [Compound 4159]
Second: CC(C)(O)C#Cc1ccc(NC(=O)CSc2nnnn2-c2cc(Cl)c(C3CC3)cc2Cl)c(Cl)c1 [Compound 4070]
The IC50 of the first is 1.6-fold higher: 136 nM for the first, 82.5 nM for the second.

Compared with `CN(C)c1ccc(CNC(=O)C(C)(C)C#Cc2ccc(NC(=O)CSc3nnnn3-c3ccc(C4CC4)cc3Cl)c(Cl)c2)cc1` [Compound 4153], `CC(C)(C#Cc1ccc(NC(=O)CSc2nnnn2-c2cc(C(F)(F)F)cc(C3CC3)c2Cl)c(Cl)c1)OCCN1CCNCC1` [Compound 4235] is 5.7-fold higher in IC50: 127 nM for the first, 718 nM for the second. The first is the more potent here.

Same assay, conditions: IC50 mut, mutant reverse transcriptase, enzymatic assay of Example 24

`CC(C)(C)c1ccc(-n2nnnc2SCC(=O)Nc2ccc(-c3ccc(OCC(=O)O)c(Cl)c3)cc2Cl)c(Cl)c1` [Compound 3013] and `CC(C)(C)c1ccc(-n2nnnc2SCC(=O)Nc2ccc(-c3ccc(OCC(=O)O)cc3F)cc2Cl)c(Cl)c1` [Compound 3020] are within 1.5-fold of each other in IC50: 24 nM for the first, 23 nM for the second.

`CN(C)S(=O)(=O)c1ccc(NC(=O)CSc2nnnn2-c2ccc(C(C)(C)C)cc2Cl)c(Cl)c1` [Compound 3025] and `CC(C)NS(=O)(=O)c1ccc(NC(=O)CSc2nnnn2-c2ccc(C(C)(C)C)cc2Cl)c(Cl)c1` [Compound 3023] are within 1.5-fold of each other in IC50: 217 nM for the first, 284 nM for the second.

First: CC(C)(C)c1cc(Cl)c(-n2nnnc2SCC(=O)Nc2ccc(-c3ccc(CC(=O)O)cc3)cc2Cl)c(Cl)c1 [Compound 2020]
Second: CC(C)(C)c1ccc(-n2nnnc2SCC(=O)Nc2ccc(C(=O)Nc3ccc(CC(=O)O)cc3)cc2Cl)c(Cl)c1 [Compound 6001]
The IC50 of the first is 3.8-fold lower: 18 nM for the first, 69 nM for the second. The first is the more potent here.

`CC(C)(C)c1ccc(-n2nnnc2SCC(=O)Nc2ccc(C(=O)Nc3ccccc3O)cc2Cl)c(Cl)c1` [Compound 6011] and `CC(C)(C)c1ccc(-n2nnnc2SCC(=O)Nc2ccc(C(=O)Nc3ccc(O)cc3)cc2Cl)c(Cl)c1` [Compound 6013] are within 1.5-fold of each other in IC50: 26 nM for the first, 34 nM for the second.

`CC(C)c1ccc(-n2nnnc2SCC(=O)Nc2ccc(-c3ccc(OCCN4CCCC4)cc3)cc2Cl)c(Cl)c1` [Compound 2056] and `CC(C)(C)c1ccc(-n2nnnc2SCC(=O)Nc2ccc(-c3ccc(OCCN4CCCCC4)cc3)cc2Cl)c(Cl)c1` [Compound 2039] are within 1.5-fold of each other in IC50: 29 nM for the first, 28 nM for the second.

First: O=C(COc1ccc(NC(=O)CSc2nnnn2-c2ccc(C3CC3)cc2Cl)c(Cl)c1)NCCc1cc[n+]([O-])cc1 [Compound 5040]
Second: O=C(COc1ccc(NC(=O)CSc2nnnn2-c2ccc(C3CC3)cc2Cl)c(Cl)c1)NCc1cccnc1 [Compound 5033]
The IC50 of the first is 4.5-fold higher: 563 nM for the first, 124 nM for the second.

Going from `CC(C)(NC(=O)c1ccc(NC(=O)CSc2nnnn2-c2ccc(C3CC3)cc2Cl)c(Cl)c1)C(=O)O` [Compound 6033] to `CS(=O)(=O)NC(=O)c1ccc(NC(=O)CSc2nnnn2-c2ccc(C3CC3)cc2Cl)c(Cl)c1` [Compound 6036], the IC50 falls from 298 nM to 146 nM (2-fold).

`O=C(O)Cc1ccc(-c2ccc(NC(=O)CSc3nnnn3-c3ccc4ccccc4c3Cl)c(Cl)c2)cc1` [Compound 2030] and `COC(=O)Cc1ccc(-c2ccc(NC(=O)CSc3nnnn3-c3ccc(C)cc3Cl)c(Cl)c2)cc1` [Compound 2003] are within 1.5-fold of each other in IC50: 64 nM for the first, 53 nM for the second.

First: CC(C)(C)c1ccc(-n2nnnc2SCC(=O)Nc2ccc(C(=O)NCc3cccnc3)cc2Cl)c(Cl)c1 [Compound 6008]
Second: CC(C)(C)c1ccc(-n2nnnc2SCC(=O)Nc2ccc(C(=O)NCCC(=O)O)cc2Cl)c(Cl)c1 [Compound 6024]
The IC50 of the first is 1.6-fold lower: 26 nM for the first, 41 nM for the second. The first is the more potent here.

`CC(CC(=O)O)NC(=O)COc1ccc(NC(=O)CSc2nnnn2-c2ccc(C(C)(C)C)cc2Cl)c(Cl)c1` (stereo not shown) [Compound 5014] and `CC(C)(C)c1ccc(-n2nnnc2SCC(=O)Nc2ccc(OCC(=O)NCCO)cc2Cl)c(Cl)c1` [Compound 5015] are within 1.5-fold of each other in IC50: 146 nM for the first, 158 nM for the second.

Compared with `CN1CCN(NS(=O)(=O)c2ccc(NC(=O)CSc3nnnn3-c3ccc(C4CC4)cc3Cl)c(Cl)c2)CC1` [Compound 3037], `CNC(=O)NS(=O)(=O)c1ccc(NC(=O)CSc2nnnn2-c2ccc(C3CC3)cc2Cl)c(Cl)c1` [Compound 3039] is 2.4-fold higher in IC50: 112 nM for the first, 268 nM for the second.

Compared with `CC(C)(C)c1ccc(-n2nnnc2SCC(=O)Nc2ccc(OCC(=O)NC3CCN(Cc4ccccc4)CC3)cc2Cl)c(Cl)c1` [Compound 5008], `CC(C)(C)c1ccc(-n2nnnc2SCC(=O)Nc2ccc(OCC(=O)N3CCOCC3)cc2Cl)c(Cl)c1` [Compound 5004] is 21-fold lower in IC50: 861 nM for the first, 41 nM for the second. The second is the more potent here.

Going from `CC(C)(C)c1ccc(-n2nnnc2SCC(=O)Nc2ccc(-c3ccc(C(=O)O)s3)cc2Cl)c(Cl)c1` [Compound 3030] to `CC(C)(C)c1ccc(-n2nnnc2SCC(=O)Nc2ccc(C(=O)NCCc3ccc(O)c(O)c3)cc2Cl)c(Cl)c1` [Compound 6020], the IC50 rises from 28 nM to 51 nM (1.8-fold). The first is the more potent here.

First: CC(C)(C#Cc1ccc(NC(=O)CSc2nnc(C3CC3)n2-c2ccc(C3CC3)cc2Cl)c(Cl)c1)C(=O)O [Compound 1019]
Second: CC(C)(C)c1ccc(-n2nnnc2SCC(=O)Nc2ccc(C(=O)N3CCC(C(=O)O)CC3)cc2Cl)c(Cl)c1 [Compound 6030]
The IC50 of the first is 1.8-fold lower: 525 nM for the first, 919 nM for the second. The first is the more potent here.

Going from `Cc1ccc(-n2nnnc2SCC(=O)Nc2ccc(-c3ccc(CCO)cc3)cc2Cl)c(Cl)c1` [Compound 2009] to `Cc1ccc(-n2nnnc2SCC(=O)Nc2ccc(-c3nnn[nH]3)cc2Cl)c(Cl)c1` [Compound 3019], the IC50 rises from 28 nM to 539 nM (19-fold). The first is the more potent here.

Compared with `CNC(=O)c1ccc(NC(=O)CSc2nnnn2-c2ccc(C)cc2Cl)c(Cl)c1` [Compound 3007], `CN(C)c1ccc(NC(=O)COc2ccc(NC(=O)CSc3nnnn3-c3ccc(C(C)(C)C)cc3Cl)c(Cl)c2)cc1` [Compound 5012] is 1.6-fold higher in IC50: 290 nM for the first, 466 nM for the second.

`Cc1ccc(-c2ncsc2SCC(=O)Nc2ccc(-c3ccc(CC(=O)O)cc3)cc2Cl)c(Cl)c1` [Compound 1002] gave an IC50 of 795 nM.
